# Patent US12122750B2, “AT2R antagonists and uses thereof” (Eli Lilly and Company, priority 2022, dated 2024)
# Columns and labels:
# [1] = biological target: recombinant human angiotensin-II receptor subtype I (hAT1R) (Homo sapiens (Human), UniProt P30556); assay: Competitive radioligand binding assay (SPA), hAT1R/CHO membranes; details: [125I]-Tyr4-Angiotensin-II, read-out: AT1R Ki
# Procedure: Membranes hATIR/CHO were Purchased from PerkinElmer, Inc.
# Cellular membranes prepared from Chinese hamster ovary (CHO) cells which expressed recombinant human angiotensin-II receptor subtype I (hAT1R), were purchased from PerkinElmer (Catalog Number ES-072-M400UA).
# Receptor Binding Protocol
# The assays were performed with a scintillation proximity assay (SPA) method using polyvinyltoluene (PVT) wheat germ agglutinin-coupled SPA beads (Perkin Elmer Cat. #RPNQ0001). Assay buffer containing BSA (50 mM Tris-HCl, pH 7.5, 150 mM NaCl, 0.1% w/v fatty-acid free BSA) was used for preparing radioligand, membrane and SPA bead reagent dilution to working stock concentrations. Reference control and test compounds were diluted to obtain ten-point concentration response curves using a four-fold serial dilution protocol onto assay plates, dispensed acoustically from DMSO stock using automated ECHO instrument technology (Labcyte, Inc.). Concentration response curves were routinely generated with the highest final assay concentration for the reference angiotensin-II control at 50 nM, and the highest final assay concentration for the test compounds at 50 μM. […] The hAT2R membrane was combined with PVT-WGA SPA beads to obtain a final assay concentration of 0.25 μg/well hAT2R membrane+0.1 mg/well PVT-WGA SPA bead. And the hAT1R membrane PVT-WGA SPA bead final concentrations was 0.5 μg/well hAT1R membrane+0.1 mg/well PVT-WGA SPA bead. […] For all assays, radioligand addition was followed by the addition of membrane-SPA bead mixture, i.e., the hAT2R membrane-SPA bead mixture (30 μL), the rAT2R membrane-SPA bead mixture, or the AT1R membrane-SPA bead mixture (30 μL) into the assay plate. All dispensing steps were added using a Multiflo FX (Biotek, Inc.) bulk dispensing instrument. After reagent addition steps, assay plates were sealed, and plate contents mixed for one minute on a benchtop micro-plate shaker. Following a 10-hour incubation at room temperature to allow for bead settling and radioligand binding, bound radioactivity was quantitated using a Microbeta Trilux scintillation counter (Perkin Elmer) and expressed as counts per minute (CPM). The unlabeled angiotensin-II control was included on each plate as an experimental assay reference.
# Compounds were tested in a 10-point concentration response curve (CRC) format, with each plate containing the positive control angiotensin-II positive reference compound, and experimental compounds. Maximum binding response (Max) was determined in 32 control wells per plate using assay buffer treatment only, and the minimum binding controls or nonspecific binding response (Min) was also determined in 32 wells per plate by the treatment with 50 nM angiotensin-II. All test sample concentration responses were normalized to the control response and calculated as a percent of the maximal response after correcting for nonspecific binding as shown below: % Specific inhibition=100%−[(CPM−Min)/(Max−Min)×100%]
# Percent specific binding (y-axis) was plotted versus the log concentration of compound (x-axis).
# Binding affinities for compounds of the present disclosure were determined according to the assay described herein.
# Binding affinities for compounds of the present disclosure were determined according to the assay described above.
# [2] = biological target: recombinant human angiotensin-II receptor subtype 2 (hAT2R) (Homo sapiens (Human), UniProt P50052); assay: Competitive radioligand binding assay (SPA), hAT2R HEK293 membranes; details: [125I]-Tyr4-Angiotensin-II, read-out: AT2R Ki
# Procedure: Compound Solubilization Test and reference compounds were received as dry powder reagents, weighed, and solubilized in 100% DMSO to generate a working stock concentration of 10 mM. Membrane Preparation Protocol (hAT2R HEK293 and rAT2R HEK293) hAT2R membranes were prepared from human embryonic kidney (HEK293) cells which were stably transfected with recombinant human angiotensin-II receptor subtype 2 (hAT2R). Cells from the stable cell lines were expanded in tissue culture flasks to generate a large population of cells; cell pellet (>1 gm), and these cell pellets were stored frozen prior to initiating this membrane isolation procedure for each receptor isoform. Frozen cell pellets were thawed in ice-cold homogenization/resuspension buffer (50 mM Tris-HCl, pH 7.5) containing one Complete© protease inhibitor tablet with EDTA (Roche Diagnostics) per 50 mL buffer, and cell pellet was resuspended at a ratio of 10 mL homogenization buffer to gram of starting cell pellet. Cell suspension was homogenized with an overhead motor-driven Teflon-glass homogenizer using 15 to 20 strokes, followed by centrifugation at 1100×g for 10 minutes at 4° C. The supernatant was saved on ice, pellets were homogenized as before, and centrifuged at 1100×g for 10 minutes at 4° C. Both supernatants were combined and subsequently centrifuged at 35,000×g for 60 minutes at 4° C. The final centrifugation pellet (pellet 2) containing the isolated membranes was resuspended in buffer (4 to 5 mL/g of starting cell paste) containing protease inhibitors and quick frozen in liquid nitrogen prior to storage at -80° C. Protein concentration was determined using a BCA kit (ThermoScientific, Inc.) with bovine serum albumin (BSA) as standard. […] The assays were performed with a scintillation proximity assay (SPA) method using polyvinyltoluene (PVT) wheat germ agglutinin-coupled SPA beads (Perkin Elmer Cat. #RPNQ0001). Assay buffer containing BSA (50 mM Tris-HCl, pH 7.5, 150 mM NaCl, 0.1% w/v fatty-acid free BSA) was used for preparing radioligand, membrane and SPA bead reagent dilution to working stock concentrations. Reference control and test compounds were diluted to obtain ten-point concentration response curves using a four-fold serial dilution protocol onto assay plates, dispensed acoustically from DMSO stock using automated ECHO instrument technology (Labcyte, Inc.). Concentration response curves were routinely generated with the highest final assay concentration for the reference angiotensin-II control at 50 nM, and the highest final assay concentration for the test compounds at 50 μM. […] The hAT2R membrane was combined with PVT-WGA SPA beads to obtain a final assay concentration of 0.25 μg/well hAT2R membrane+0.1 mg/well PVT-WGA SPA bead. And the hAT1R membrane PVT-WGA SPA bead final concentrations was 0.5 μg/well hAT1R membrane+0.1 mg/well PVT-WGA SPA bead. […] For all assays, radioligand addition was followed by the addition of membrane-SPA bead mixture, i.e., the hAT2R membrane-SPA bead mixture (30 μL), the rAT2R membrane-SPA bead mixture, or the AT1R membrane-SPA bead mixture (30 μL) into the assay plate. All dispensing steps were added using a Multiflo FX (Biotek, Inc.) bulk dispensing instrument. After reagent addition steps, assay plates were sealed, and plate contents mixed for one minute on a benchtop micro-plate shaker. Following a 10-hour incubation at room temperature to allow for bead settling and radioligand binding, bound radioactivity was quantitated using a Microbeta Trilux scintillation counter (Perkin Elmer) and expressed as counts per minute (CPM). The unlabeled angiotensin-II control was included on each plate as an experimental assay reference. […] Data Analysis Procedures Compounds were tested in a 10-point concentration response curve (CRC) format, with each plate containing the positive control angiotensin-II positive reference compound, and experimental compounds.
# Chain of recombinant human angiotensin-II receptor subtype 2 (hAT2R) (P50052 whole entry): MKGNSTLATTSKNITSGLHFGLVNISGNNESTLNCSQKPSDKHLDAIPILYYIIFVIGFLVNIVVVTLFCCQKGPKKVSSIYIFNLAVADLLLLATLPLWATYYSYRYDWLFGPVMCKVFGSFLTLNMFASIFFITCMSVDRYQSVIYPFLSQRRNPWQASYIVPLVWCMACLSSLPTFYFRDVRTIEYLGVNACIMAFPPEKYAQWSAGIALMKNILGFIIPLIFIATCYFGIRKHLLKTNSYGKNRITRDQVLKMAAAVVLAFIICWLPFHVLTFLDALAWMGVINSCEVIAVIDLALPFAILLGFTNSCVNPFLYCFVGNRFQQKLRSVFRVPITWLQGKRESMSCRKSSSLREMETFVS
# Chain of recombinant human angiotensin-II receptor subtype I (hAT1R) (P30556 whole entry): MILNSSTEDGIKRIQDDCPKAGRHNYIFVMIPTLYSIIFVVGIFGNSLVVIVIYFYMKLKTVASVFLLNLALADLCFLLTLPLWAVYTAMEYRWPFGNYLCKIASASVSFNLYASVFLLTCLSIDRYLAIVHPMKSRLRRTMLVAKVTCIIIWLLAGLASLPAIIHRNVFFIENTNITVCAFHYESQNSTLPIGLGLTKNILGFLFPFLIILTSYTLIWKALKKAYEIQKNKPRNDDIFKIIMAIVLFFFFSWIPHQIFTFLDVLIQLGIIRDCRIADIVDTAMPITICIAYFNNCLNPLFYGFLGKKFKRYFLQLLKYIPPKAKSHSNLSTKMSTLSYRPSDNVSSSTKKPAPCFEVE
Ki [1] [nM],Ki [2] [nM],Compound
37300,,"CN(C(=O)N1CCC(CC(=O)N(c2ccccc2)[C@H]2CCCC(F)(F)C2)(C(=O)O)CC1)c1ccc(F)cc1 (single isomer, unassigned) [44B (isomer 2)]"
,5.21,"O=C(CC1(C(=O)O)CCN(c2ccccn2)CC1)N(c1ccccc1)C1CCCCC1 [Example 49, 4-[2-(N-cyclohexylanilino)-2-oxo-ethyl]-1-(2-pyridyl)piperidine-4-carboxylic acid]"
,3.11,"CN(C(=O)N1CCC(CC(=O)N(c2ccccc2)c2ccccc2F)(C(=O)O)CC1)C(C1CC1)C1CC1 [Example 55, 1-[dicyclopropylmethyl(methyl)carbamoyl]-4-[2-(N-(2-fluorophenyl)anilino)-2-oxo-ethyl]piperidine-4-carboxylic acid]"
,2.99,"O=C(N1CCC(CC(=O)N(c2ccccc2)c2ccccc2F)(C(=O)O)CC1)N1CCc2ccccc21 [Example 56, 4-[2-(N-(2-fluorophenyl)anilino)-2-oxo-ethyl]-1-(indoline-1-carbonyl)piperidine-4-carboxylic acid]"
,7.82,"O=C(N1CCC(CC(=O)N(c2ccccc2)c2cccc(F)c2)(C(=O)O)CC1)N1CCc2ccccc21 [Example 57, 4-[2-(N-(3-fluorophenyl)anilino)-2-oxo-ethyl]-1-(indoline-1-carbonyl)piperidine-4-carboxylic acid]"
,9.86,"O=C(N1CCC(CC(=O)N(c2ccccc2)c2ccc(F)cc2)(C(=O)O)CC1)N1CCc2ccccc21 [Example 58, 4-[2-(N-(4-fluorophenyl)anilino)-2-oxo-ethyl]-1-(indoline-1-carbonyl)piperidine-4-carboxylic acid]"
,4.23,"O=C(N1CCC(CC(=O)N(c2ccccc2F)c2ccccc2F)(C(=O)O)CC1)N1CCc2ccccc21 [Example 59, 4-[2-(2-fluoro-N-(2-fluorophenyl)anilino)-2-oxo-ethyl]-1-(indoline-1-carbonyl)piperidine-4-carboxylic acid]"
,3.18,"O=C(N1CCC(CC(=O)N(c2cccc(F)c2)c2ccccc2F)(C(=O)O)CC1)N1CCc2ccccc21 [Example 60, 4-[2-(3-fluoro-N-(2-fluorophenyl)anilino)-2-oxo-ethyl]-1-(indoline-1-carbonyl)piperidine-4-carboxylic acid]"
,3.73,"O=C(N1CCC(CC(=O)N(c2ccc(F)cc2)c2ccccc2F)(C(=O)O)CC1)N1CCc2ccccc21 [Example 61, 4-[2-(4-fluoro-N-(2-fluorophenyl)anilino)-2-oxo-ethyl]-1-(indoline-1-carbonyl)piperidine-4-carboxylic acid]"
,2.11,"CN(C(=O)N1CCC(CC(=O)N(c2ccccc2)C2(C3CC3)CC2)(C(=O)O)CC1)c1ccc(F)cc1 [compound 20, 4-[2-(N-(1-cyclopropylcyclopropyl)anilino)-2-oxo-ethyl]-1-[(4-fluorophenyl)-methyl-carbamoyl]piperidine-4-carboxylic acid]"
,4.01,"CN(C(=O)N1CCC(CC(=O)N(c2ccc(F)cc2)C2CCCCC2)(C(=O)O)CC1)c1ccc(F)cc1 [compound 21, 4-[2-(N-cyclohexyl-4-fluoro-anilino)-2-oxo-ethyl]-1-[(4-fluorophenyl)-methyl-carbamoyl]piperidine-4-carboxylic acid]"
,0.573,"CC1CCCC(N(C(=O)CC2(C(=O)O)CCN(C(=O)N(C)c3ccc(F)cc3)CC2)c2ccccc2)C1 (stereo not shown) [compound 22, 1-[(4-fluorophenyl)-methyl-carbamoyl]-4-[2-(N-(3-methyl-cyclohexyl)anilino)-2-oxo-ethyl]piperidine-4-carboxylic acid]"
,0.823,"Cc1cccc(N(C(=O)CC2(C(=O)O)CCN(C(=O)N(C)c3ccc(F)cc3)CC2)c2ccccc2)c1 [compound 23, 1-[(4-fluorophenyl)-methyl-carbamoyl]-4-[2-[N-(m-tolyl)anilino]-2-oxo-ethyl]piperidine-4-carboxylic acid]"
,0.774,"CN(C(=O)N1CCC(CC(=O)N(c2ccccc2)c2cccc(F)c2)(C(=O)O)CC1)c1ccc(F)cc1 [compound 24, 4-[2-(N-(3-fluorophenyl)anilino)-2-oxo-ethyl]-1-[(4-fluorophenyl)-methyl-carbamoyl]piperidine-4-carboxylic acid]"
,2.7,"COc1cccc(N(C(=O)CC2(C(=O)O)CCN(C(=O)N(C)c3ccc(F)cc3)CC2)c2ccccc2)c1 [compound 25, 1-[(4-fluorophenyl)-methyl-carbamoyl]-4-[2-(N-(3-methoxyphenyl)anilino)-2-oxo-ethyl]piperidine-4-carboxylic acid]"
,0.4,"CN(C(=O)N1CCC(CC(=O)N(c2cccc(F)c2)C2CCCCC2)(C(=O)O)CC1)c1ccc(F)cc1 [compound 27, 4-[2-(N-cyclohexyl-3-fluoro-anilino)-2-oxo-ethyl]-1-[(4-fluorophenyl)-methyl-carbamoyl]piperidine-4-carboxylic acid]"
,3.39,"CC(C)c1ccc(N(C(=O)CC2(C(=O)O)CCN(C(=O)N(C)c3ccc(F)cc3)CC2)c2ccccc2)cc1 [compound 28, 1-[(4-fluorophenyl)-methyl-carbamoyl]-4-[2-(N-(4-isopropylphenyl)anilino)-2-oxo-ethyl]piperidine-4-carboxylic acid]"
,3.11,"Cc1ccc(N(C(=O)CC2(C(=O)O)CCN(C(=O)N(C)c3ccc(F)cc3)CC2)c2ccccc2)cc1 [compound 29, 1-[(4-fluorophenyl)-methyl-carbamoyl]-4-[2-oxo-2-[N-(p-tolyl)anilino]ethyl]piperidine-4-carboxylic]"
,1.89,"CN(C(=O)N1CCC(CC(=O)N(c2ccccc2)c2ccc(Cl)cc2)(C(=O)O)CC1)c1ccc(F)cc1 [compound 31, -[2-(N-(4-chlorophenyl)anilino)-2-oxo-ethyl]-1-[(4-fluorophenyl)-methyl-carbamoyl]piperidine-4-carboxylic acid]"
